# From patent US20060293307A1, “Oxazolidinone derivatives as antimicrobials” (priority 2002, published 2006)
# Read-outs that look alike come from different tables or passages of the source.
# What was measured:
# S. warnerii ST360 = test: MIC, agar incorporation method; format: cell-based
# H. influenzae 35056 = test: MIC against Haemophilus strains; format: cell-based
# H. influenzae 23 = test: MIC against Haemophilus strains; format: cell-based
# H. influenzae 49766 = test: MIC against Haemophilus strains; format: cell-based
# H. influenzae 451 = test: MIC against Haemophilus strains; format: cell-based
# Moraxella M6 = test: MIC, agar incorporation method; format: cell-based
# M. tuberculosis H37Rv = test: MIC against M. tuberculosis strains, agar dilution; format: cell-based, Mycobacterium tuberculosis; details: S. No. 04 Mt-, Middle Brook 7H10 + OADC, 37° C., 14-21 days
# M. tuberculosis V-591 = test: MIC against M. tuberculosis strains, agar dilution; format: cell-based, Mycobacterium tuberculosis; details: S. No. 13 Mt-, Middle Brook 7H10 + OADC, 37° C., 14-21 days
# M. tuberculosis PC [1] = test: MIC against M. tuberculosis strains, agar dilution; format: cell-based, Mycobacterium tuberculosis; details: S. No. 16 Mt-, Middle Brook 7H10 + OADC, 37° C., 14-21 days
# M. tuberculosis PC [2] = test: MIC against M. tuberculosis strains, agar dilution; format: cell-based, Mycobacterium tuberculosis; details: S. No. 17 Mt-, Middle Brook 7H10 + OADC, 37° C., 14-21 days
# M. tuberculosis PC [3] = test: MIC against M. tuberculosis strains, agar dilution; format: cell-based, Mycobacterium tuberculosis; details: S. No. 22 Mt-, Middle Brook 7H10 + OADC, 37° C., 14-21 days
# M. tuberculosis PC 4793 = test: MIC against M. tuberculosis strains, agar dilution; format: cell-based, Mycobacterium tuberculosis; details: S. No. 23 Mt-, Middle Brook 7H10 + OADC, 37° C., 14-21 days
# M. avium ATCC 49601 = test: MIC against MAC strains, agar dilution; format: cell-based, Mycobacterium avium; details: S. No. 01 Ma-1, M. avium ATCC 49601; Middle Brook 7H10 + OADC, 37° C., 14-21 days
# M. avium ATCC 1723 = test: MIC against MAC strains, agar dilution; format: cell-based, Mycobacterium avium; details: S. No. 03 Ma-3, M. avium ATCC 1723; Middle Brook 7H10 + OADC, 37° C., 14-21 days
# M. intracellulare F21/12 = test: MIC against MAC strains, agar dilution; format: cell-based; details: S. No. 08 Mi-3, M. intracellulare F21/12; Middle Brook 7H10 + OADC, 37° C., 14-21 days
# [4] = system: M. avium intracellulare 4; test: MIC against MAC strains, agar dilution; format: cell-based; details: S. No. 11 Mai-2, M. avium intracellulare 4; Middle Brook 7H10 + OADC, 37° C., 14-21 days
# [5] = system: M. avium intracellulare 540/96; test: MIC against MAC strains, agar dilution; format: cell-based; details: S. No. 12 Mai-4, M. avium intracellulare 540/96; Middle Brook 7H10 + OADC, 37° C., 14-21 days
# [6] = system: M. avium intracellulare 1211/96; test: MIC against MAC strains, agar dilution; format: cell-based; details: S. No. 13 Mai-5, M. avium intracellulare 1211/96; Middle Brook 7H10 + OADC, 37° C., 14-21 days
# [7] = system: M. avium intracellulare 18/98; test: MIC against MAC strains, agar dilution; format: cell-based; details: S. No. 16 Mai-9, M. avium intracellulare 18/98; Middle Brook 7H10 + OADC, 37° C., 14-21 days
# [8] = system: M. avium intracellulare 19/97; test: MIC against MAC strains, agar dilution; format: cell-based; details: S. No. 17 Mai-10, M. avium intracellulare 19/97; Middle Brook 7H10 + OADC, 37° C., 14-21 days
# [9] = Haemophilus influenzae, s. No. 1, H. influenzae 35056, read-out: MIC
# [10] = Haemophilus influenzae, s. No. 5, H. influenzae 23, read-out: MIC
# [11] = Haemophilus influenzae, s. No. 6, H. influenzae 49766, read-out: MIC
# [12] = Haemophilus influenzae, s. No. 8, H. influenzae 451, read-out: MIC
Compound,"MIC (S. warnerii ST360; S. No. 16, S. warnerii ST360) [µg/mL]","MIC (H. influenzae 35056; s. No. 1, H. influenzae 35056) [µg/mL]","MIC (H. influenzae 23; s. No. 5, H. influenzae 23) [µg/mL]","MIC (H. influenzae 49766; s. No. 6, H. influenzae 49766) [µg/mL]","MIC (H. influenzae 451; s. No. 8, H. influenzae 451) [µg/mL]","MIC (Moraxella M6; S. No. 60, Moraxella M6) [µg/mL]",MIC (S. warnerii ST360) [µg/mL],other results
"CC(=O)NC[C@H]1CN(c2ccc(N3CCN(c4ccc([N+](=O)[O-])s4)CC3)cc2)C(=O)O1 [Compound No. 6, (S)—N-[[3-[4-[N-1-(5-nitro-2-thienyl)piperazinyl]-phenyl]-2-oxo-5-oxazolidinyl]-methyl]-acetamide]",1,16,16,16,16,,,
"CC(=O)NC[C@H]1CN(c2ccc(N3CCN(c4cc(C(OC(C)=O)OC(C)=O)sc4[N+](=O)[O-])CC3)c(F)c2)C(=O)O1 [Compound No. 5, (S)—N-[[3-[3-Fluoro-4-[4-{3-thienyl(2-nitro)-5-acetyloxy}methylacetate]-1-piperazinyl]phenyl]-2-oxo-5-oxazolidinyl]acetamide]",0.25,>16,>16,>16,>16,2,,
"O=C(NC[C@H]1CN(c2ccc(N3CCN(c4ccc([N+](=O)[O-])s4)CC3)c(F)c2)C(=O)O1)C(F)F [Compound No. 8, (S)—N-[[3-[3-Fluoro-4-[4-(5-nitro-2-thienyl)-1-piperazinyl]phenyl]-2-oxo-5-oxazolidinyl]methyl]difluoroacetamide]",,,,,,,0.25,"MIC (Moraxella M6; Moraxella, M6): 1 µg/mL; MIC (H. influenzae 35056; Haemophilus influenzae, 35056): > 16 µg/mL; MIC (H. influenzae 23; Haemophilus influenzae, 23): > 16 µg/mL; MIC (H. influenzae 49766; Haemophilus influenzae, 49766): > 16 µg/mL; MIC (H. influenzae 451; Haemophilus influenzae, 451): > 16 µg/mL"
CO[C@H]1/C=C/O[C@@]2(C)Oc3c(C)c(O)c4c(O)c(c(/C=N/N5CCN(C)CC5)c(O)c4c3C2=O)NC(=O)/C(C)=C\C=C\[C@H](C)[C@H](O)[C@@H](C)[C@@H](O)[C@@H](C)[C@H](OC(C)=O)[C@@H]1C [RIF],,,,,,,,MIC (M. tuberculosis H37Rv): 0.25 µg/mL; MIC (M. tuberculosis V-591): >32 µg/mL; MIC (M. tuberculosis PC [1]): 4.0 µg/mL; MIC (M. tuberculosis PC [2]): 2.0 µg/mL; MIC (M. tuberculosis PC [3]): 2.0 µg/mL; MIC (M. tuberculosis PC 4793): 2.0 µg/mL; MIC (M. avium ATCC 49601): <0.03 µg/mL; MIC (M. avium ATCC 1723): 1.0 µg/mL; MIC (M. intracellulare F21/12): 4.0 µg/mL; MIC [4]: 0.25 µg/mL; MIC [5]: >32 µg/mL; MIC [6]: 0.25 µg/mL; MIC [7]: >32 µg/mL; MIC [8]: >32 µg/mL
"CC(=O)NC[C@H]1CN(c2ccc(N3CCN(c4ccc(C=O)o4)CC3)c(F)c2)C(=O)O1 [Compound No. 3, (S)—N-[[3-[3-Fluoro-4-[4-(5-formyl-2-furyl)-1-piperazinyl]phenyl]-2-oxo-5-oxazolidinyl]methyl]acetamide]",,,,,,,,MIC (H. influenzae 35056; [9]): 4 µg/mL; MIC (H. influenzae 23; [10]): 8 µg/mL; MIC (H. influenzae 49766; [11]): 8 µg/mL; MIC (H. influenzae 451; [12]): 8 µg/mL
"CC(=O)NC[C@H]1CN(c2ccc(N3CCN(c4ccc(C=O)s4)CC3)c(F)c2)C(=O)O1 [Compound No. 2, (S)—N-[[3-[3-Fluoro-4-[4-(5-formyl-2-thienyl)-1-piperazinyl]phenyl]-2-oxo-5-oxazolidinyl]methyl]acetamide]",,,,,,,< 0.25,"MIC (Moraxella M6; S. No. 60, Moraxella M6, read-out: MIC): 0.5 µg/mL; MIC (H. influenzae 35056; [9]): 16 µg/mL; MIC (H. influenzae 23; [10]): > 16 µg/mL; MIC (H. influenzae 49766; [11]): > 16 µg/mL; MIC (H. influenzae 451; [12]): 16 µg/mL"
"O=C(NC[C@H]1CN(c2ccc(N3CCN(c4ccc([N+](=O)[O-])s4)CC3)c(F)c2)C(=O)O1)C(Cl)Cl [compound 9, (S)—N-[[3-[-3-Fluoro-4-[N-1-(5-nitro-2-thienyl)-piperazinyl]phenyl] -2-oxo-5-oxazolidinyl]methyl]dichloroacetamide]",0.5,>16,>16,>16,>16,1,,
(S)—N-[[3-[-3-Fluoro-4-[(5-nitro-2-thienyl)-3-methyl-1-piperazinyl]phenyl]-2-oxo-5-oxazolidinyl]methyl]acetamide [Compound No. 10],0.5,>16,>16,>16,>16,2,,
"CC(=O)NC[C@H]1CN(c2ccc(N3CCN(c4ccc([N+](=O)[O-])o4)CC3)c(F)c2)C(=O)O1 [Compound No. 4, (S)—N-[[3-[3-Fluoro-4-[4-(5-nitro-2-furyl)-1-piperazinyl]phenyl]-2-oxo-5-oxazolidinyl]methyl]acetamide]",,,,,,,8,
"C[C@H](Cl)C(=O)NCC1CN(c2ccc(N3CCN(c4ccc([N+](=O)[O-])s4)CC3)c(F)c2)C(=O)O1 (stereo partly drawn) [Compound No. 7, (S)—N-[[3-[3-Fluoro-4-[N-1-{4-(5-nitro-2-thienyl)piperazinyl}]-phenyl]-2-oxo-5-oxazolidinyl]-methyl]-2-chloro-propionamide]",4,>16,>16,>16,>16,>8,,
"CN[C@H](CC(C)C)C(=O)N[C@H]1C(=O)N[C@@H](CC(N)=O)C(=O)N[C@H]2C(=O)N[C@H]3C(=O)N[C@H](C(=O)N[C@H](C(=O)O)c4cc(O)cc(O)c4-c4cc3ccc4O)[C@H](O)c3ccc(c(Cl)c3)Oc3cc2cc(c3O[C@@H]2O[C@H](CO)[C@@H](O)[C@H](O)[C@H]2O[C@H]2C[C@](C)(N)[C@H](O)[C@H](C)O2)Oc2ccc(cc2Cl)[C@H]1O [Vancomycin, reference compound]",,,,,,,0.5,"MIC (Moraxella M6; Moraxella, M6): > 8 µg/mL"
